Data on 37 compounds can be found in the C3SDB collision cross section collection.

For data set [1] the following is noted: instrument: DT, single field.
For data set [2] the following is noted: instrument: DT, single field, calibrated with Agilent tune mix (Agilent).
For data set [3] the following is noted: instrument: TW, calibrated with phosphatidylcholines (ESI+) and phosphatidylethanolamines (ESI-).
The conditions of data set [4]: instrument: TW, calibrated with phosphatidylcholines (ESI+) and phosphatidylethanolamines (ESI-). This is another data set of the same source.

Several values for one entry are separate records, joined by “and”; a condition that tells them apart may be missing. Identical values can stand only once.

Consider `CC/C=C\C/C=C\C/C=C\C/C=C\C/C=C\CCCCCC(=O)O[C@@H](CO)COC(=O)CCCCCCCCCCCC` [DG(35:5)], for which the “collision cross section (N2)” value in data set [1] ([M+NH4]+) is 265.29 Å² and 266.85 Å².
Turning to `CCCCCCCCCCCCCCCC(=O)OC[C@H](COP(=O)([O-])OCC[N+](C)(C)C)OC(=O)CCCCCCCCCCCCC` [PC(30:0)], the “collision cross section (N2)” value is 276.5 Å² and 277.83 Å² in data set [1] ([M+H]+); 276.8 Å² in data set [2] ([M+H]+).
`CCCCCCCCCCCCCCCCCCCCC(=O)OC[C@H](COP(=O)(O)OC[C@@H](O)CO)OC(=O)CCCCCCCCCCC` [PG(33:0)]: the “collision cross section (N2)” value in data set [3] ([M-H]-) was found to be 268.6 Å².
As for `CCCCC/C=C\CCCCCCCC(=O)OC[C@H](COP(=O)(O)OC[C@@H](O)CO)OC(=O)CCCCCCC/C=C\CCCCCCCC` [PG(33:2)], the “collision cross section (N2)” value in data set [3] ([M-H]-) is 264.5 Å².
Consider `CCCCC/C=C\C/C=C\CCCCCCCCCCCC(=O)O[C@H](COC(=O)CCCCCCCCCCC)COP(=O)(O)OC[C@@H](O)CO` [PG(34:2)], for which the “collision cross section (N2)” value was found to be 278.2 Å² in data set [4] ([M+Na]+); 267.4 Å² in data set [4] ([M-H]-); 268.1 Å² in data set [3] ([M-H]-); 283.3 Å² in data set [2] ([M+H]+); 284.9 Å² in data set [2] ([M+NH4]+); 268.7 Å² in data set [2] ([M-H]-).
For the compound `CCC/C=C\C/C=C\CCCCCCCC(=O)O[C@H](CO/C=C\CCCCCCCCCCCCC)COP(=O)(O)OC[C@@H](O)CO` [PG(p31:2)], the “collision cross section (N2)” value in data set [3] ([M-H]-) is given as 256.8 Å².
Turning to `CCCCCC/C=C\CCCCCCCC(=O)O[C@H](CO/C=C\CCCCCCCCCCCCCCCC)COP(=O)(O)OC[C@@H](O)CO` [PG(p34:1)], the “collision cross section (N2)” value in data set [3] ([M-H]-) is reported as 268.6 Å².
In the case of `CCCCC/C=C\C/C=C\CCCCCCCC(=O)O[C@H](CO/C=C\CCCCCCCCCCCCCC)COP(=O)(O)OC[C@@H](O)CO` [PG(p34:2)], in data set [3] ([M-H]-), the “collision cross section (N2)” value is 266.6 Å².
For the compound `CCCCCCCCCCCCCCCC(=O)OC[C@H](COP(=O)(O)O[C@H]1C(O)C(O)C(O)[C@@H](O)C1O)OC(=O)CCCCCCCCCCCCCCC` (some centres undefined) [PI(16:0/16:0)], the “collision cross section (N2)” value came out at 289.5 Å² in data set [3] ([M+Na]+) and 280.9 Å² in data set [3] ([M-H]-).
On to `CCCCCCCCCCCCC=CC[C@@H](O)[C@H](COP(=O)([O-])OCC[N+](C)(C)C)NC(=O)CCCCCCCCCCCCC` [SM(32:1)], for which the “collision cross section (N2)” value in data set [1] ([M+H]+) is 275.46 Å²; in data set [2] ([M+H]+), 276.6 Å².
In the case of `CCCCCCCC/C=C\CCCCCCCC(=O)OC[C@@H](COC(=O)CCCCCCCCCCCC)OC(=O)CCCCCCCCCCCC` [TG(44:1)], the “collision cross section (N2)” value in data set [1] ([M+NH4]+) is 296.47 Å² and 298.81 Å² and 298.68 Å²; in data set [1] ([M+Na]+), 295.37 Å² and 297.74 Å².
Regarding `CCCCCCCCCCCCCCCCCCCCCC(=O)OC[C@@H](COC(=O)CCCCCCCCCCC)OC(=O)CCCCCCCCCCC` [TG(46:0)], the “collision cross section (N2)” value in data set [1] ([M+Na]+) was 302.69 Å² and 303.56 Å².
On to `CCCCC/C=C\C/C=C\C/C=C\CCCCCCCCC(=O)OC[C@@H](COC(=O)CCCCCCCCCCC)OC(=O)CCCCCCCCCCC` [TG(46:3)], for which the “collision cross section (N2)” value is 297.58 Å² and 299.43 Å² in data set [1] ([M+NH4]+); 297 Å² and 298.89 Å² in data set [1] ([M+Na]+); 297.1 Å² in data set [2] ([M+NH4]+).
`CCCCC/C=C\C/C=C\C/C=C\CCCCCCCCC(=O)OC[C@@H](COC(=O)CCCCCCCCCCCC)OC(=O)CCCCCCCCCCCC` [TG(48:3)]: the “collision cross section (N2)” value was 304.89 Å² and 307.09 Å² in data set [1] ([M+NH4]+); 304.27 Å² and 306.32 Å² in data set [1] ([M+Na]+); 304.8 Å² in data set [2] ([M+NH4]+).
Consider `CCCCCCCCC/C=C\CCCCCCCC(=O)OC[C@@H](COC(=O)CCCCCCCCCCCCCC)OC(=O)CCCCCCCCCCCCCC` [TG(49:1)], for which the “collision cross section (N2)” value was 311.82 Å² and 313.77 Å² in data set [1] ([M+Na]+); 313 Å² in data set [2] ([M+NH4]+).
With `CCCC/C=C\CCCCCCCC(=O)OC[C@H](COC(=O)CCCCCCCCCCCCCCCCCCCC)OC(=O)CCCCCCC/C=C\CCCC` [TG(49:2)], the “collision cross section (N2)” value in data set [1] ([M+Na]+) is 309.35 Å² and 311.09 Å²; in data set [2] ([M+NH4]+), 310.5 Å².
Take `CCCC/C=C\C/C=C\CCCCCCCC(=O)O[C@@H](COC(=O)CCCCCCCCC/C=C\C/C=C\CCCCC)COC(=O)CCCCCCCCCCC` [TG(49:4)]: in data set [1] ([M+NH4]+), the “collision cross section (N2)” value was 307.56 Å².
With `CCCCCCCCCCCCCCCCCCC(=O)OC[C@@H](COC(=O)CCCCCCCCCCC)OC(=O)CCCCCCCCCCCCCCCCCC` [TG(50:0)], the “collision cross section (N2)” value in data set [1] ([M+Na]+) is reported as 316.28 Å².
As to `CCCCC/C=C\C/C=C\C/C=C\C/C=C\CCCCCC(=O)OC[C@@H](COC(=O)CCCCCCCCCCCCC)OC(=O)CCCCCCCCCCCCC` [TG(50:4)], the “collision cross section (N2)” value in data set [1] ([M+Na]+) was 308.43 Å² and 310.33 Å² and 312.33 Å²; in data set [2] ([M+NH4]+), 309.5 Å².
Regarding `CCCCC/C=C\C/C=C\C/C=C\C/C=C\CCCC(=O)OC[C@@H](COC(=O)CCCCCCCCCCC)OC(=O)CCCCCCC/C=C\CCCCCCCC` [TG(50:5)], the “collision cross section (N2)” value in data set [1] ([M+Na]+) is 308.34 Å² and 309.51 Å².
On to `CCCCC/C=C\C/C=C\CCCCCCCC(=O)OC[C@@H](COC(=O)CCCCCCC/C=C\CCCCC)OC(=O)CCCCCCC/C=C\C/C=C\CCCCC` [TG(51:5)], for which the “collision cross section (N2)” value in data set [1] ([M+NH4]+) is 312.57 Å².
Regarding `CCCCCCCC/C=C\CCCCCCCCCC(=O)OC[C@@H](COC(=O)CCCCCCCCCCC)OC(=O)CCCCCCCCC/C=C\CCCCCCCC` [TG(52:2)], in data set [1] ([M+Na]+), the “collision cross section (N2)” value is 319.25 Å² and 320.86 Å² and 321.71 Å².
For `CCCCC/C=C\C/C=C\C/C=C\C/C=C\CCCC(=O)OC[C@@H](COC(=O)CCCCCCCCCCCCC)OC(=O)CCCCCCCCCCCCCCCCC` [TG(52:4)], the “collision cross section (N2)” value in data set [1] ([M+Na]+) was 314.5 Å² and 316.78 Å²; in data set [2] ([M+NH4]+), 317.6 Å².
With `CCCCC/C=C\C/C=C\C/C=C\C/C=C\CCCC(=O)OC[C@@H](COC(=O)CCCCCCCCCCCCCC)OC(=O)CCCCCCCCCCCCCCCCC` [TG(53:4)], the “collision cross section (N2)” value was 318.08 Å² and 320.09 Å² and 324.43 Å² in data set [1] ([M+NH4]+); 319.39 Å² in data set [1] ([M+Na]+); 319.5 Å² in data set [2] ([M+NH4]+).
As to `CCCCCCCCCCCCCCCCCCCCC(=O)OC[C@@H](COC(=O)CCCCCCCCCCC)OC(=O)CCCCCCCCCCCCCCCCCCCC` [TG(54:0)], in data set [1] ([M+NH4]+), the “collision cross section (N2)” value was found to be 331.43 Å².
In the case of `CCCCC/C=C\C/C=C\C/C=C\C/C=C\CCCC(=O)OC[C@@H](COC(=O)CCCCCCCCCCCCC)OC(=O)CCCCCCCCCCCCCCCCCCC` [TG(54:4)], the “collision cross section (N2)” value in data set [1] ([M+NH4]+) was 321.8 Å² and 324.34 Å² and 326.13 Å²; in data set [1] ([M+Na]+), 320.63 Å² and 322.94 Å².
As for `CC/C=C\C/C=C\C/C=C\C/C=C\CCCCC(=O)OC[C@@H](COC(=O)CCCCCCCCCCCCCCCCC)OC(=O)CCCC/C=C\C/C=C\C/C=C\CCCCC` [TG(54:7)], the “collision cross section (N2)” value was 317.23 Å² and 320 Å² in data set [1] ([M+NH4]+); 316.19 Å² in data set [1] ([M+Na]+); 318 Å² in data set [2] ([M+NH4]+).
Regarding `CCCC/C=C\C/C=C\CCCCCCCC(=O)OC[C@H](COC(=O)CCCCCCCCC/C=C\CCCCCCCCCC)OC(=O)CCCCCCC/C=C\C/C=C\CCCC` [TG(56:5)], the “collision cross section (N2)” value in data set [1] ([M+Na]+) was 327.06 Å² and 327.86 Å².
For the compound `CC/C=C\C/C=C\C/C=C\C/C=C\C/C=C\CCCCCC(=O)OC[C@@H](COC(=O)CCCCCCC/C=C\CCCCC)OC(=O)CCCCCCCCCCCCCCCCCC` [TG(56:6)], the “collision cross section (N2)” value in data set [1] ([M+Na]+) was 326.57 Å² and 325 Å²; in data set [2] ([M+NH4]+), 328.3 Å².
For `CCCCCCCCCC/C=C\CCCCCCCCCC(=O)OC[C@@H](COC(=O)CCCCCCCCCCCC)OC(=O)CCCCCCCCC/C=C\CCCCCCCCCC` [TG(57:2)], the “collision cross section (N2)” value in data set [1] ([M+NH4]+) is 338.57 Å² and 340.8 Å²; in data set [2] ([M+NH4]+) it was 334.6 Å².
As for `CCCCC/C=C\C/C=C\CCCCCCCCCCCC(=O)OC[C@@H](COC(=O)CCCCCCCCCCCC)OC(=O)CCCCCCCCC/C=C\CCCCCCCCCC` [TG(57:3)], the “collision cross section (N2)” value is 336.68 Å² and 339.26 Å² in data set [1] ([M+NH4]+); 332.9 Å² in data set [2] ([M+NH4]+).
For the compound `CCCCC/C=C\C/C=C\C/C=C\CCCCC(=O)O[C@H](COC(=O)CCCCCCC/C=C\CCCCCCC)COC(=O)CCCCCCCCCCCCCCCCCCCCC` [TG(57:4)], the “collision cross section (N2)” value in data set [1] ([M+NH4]+) was 334.57 Å² and 337.31 Å².
In the case of `CCCCCCCCCC/C=C\CCCCCCCCCC(=O)OC[C@@H](COC(=O)CCCCCCCCCCCCC)OC(=O)CCCCCCCCC/C=C\CCCCCCCCCC` [TG(58:2)], the “collision cross section (N2)” value in data set [1] ([M+NH4]+) is 341.17 Å² and 343.91 Å² and 338.53 Å²; in data set [2] ([M+NH4]+) it was 337.8 Å².
With `CC/C=C\C/C=C\C/C=C\C/C=C\C/C=C\C/C=C\CCC(=O)OC[C@@H](COC(=O)CCCCCCCCCCCCCCC)OC(=O)CCCCCCCCCCCCCCCCCCC` [TG(58:6)], the “collision cross section (N2)” value in data set [1] ([M+NH4]+) is given as 333.74 Å².
As for `CCCCCCCCC/C=C\CCCCCCCC(=O)OC[C@H](COC(=O)CCCCCCCCCCCCCCCCCCCCC)OC(=O)CCCCCCC/C=C\CCCCCCCCC` [TG(60:2)], the “collision cross section (N2)” value in data set [1] ([M+NH4]+) is 346.03 Å².
On to `CCCCCC/C=C\CCCCCCCC(=O)OC[C@H](COC(=O)CCCCCCCCC/C=C\CCCCCCCCCC)OC(=O)CCCCCCCCC/C=C\CCCCCCCCCC` [TG(60:3)], for which, in data set [1] ([M+NH4]+), the “collision cross section (N2)” value was 344.73 Å² and 347.66 Å² and 343.58 Å².
For `CCCCC/C=C\C/C=C\CCCCCCCCCC(=O)O[C@H](COC(=O)CCCCCCC/C=C\CCCCCCCC)COC(=O)CCCCCCCCCCC/C=C\CCCCCCCC` [TG(60:4)], the “collision cross section (N2)” value in data set [1] ([M+NH4]+) is 342.69 Å² and 347.03 Å²; in data set [2] ([M+NH4]+), 340.7 Å².
